Experimental data taken from US20090176664A1, “High density peptide arrays containing kinase or phosphatase substrates” (priority 2007, published 2009).

Tested on: Src and Abl kinases
Assay: Kinase inhibition assay with different kinase inhibitors on peptide array with Abl and Src peptide substrates
Assay type: biochemical
Settings: FIG. 23; Src and Abl kinases plus one of three inhibitors
Experimental: Activity is measured using peptide arrays with Abl and Src peptide substrates.

`COc1cc(Nc2c(C#N)cnc3cc(OCCCN4CCN(C)CC4)c(OC)cc23)c(Cl)cc1Cl` [SKI606] was tested, and the “specificity of the kinase inhibitor for their respective kinase” value was “expected specificity”.
